Measured values reported in patent US20190225650A1, “PEPTIDOMIMETIC MACROCYCLES AND USE THEREOF IN REGULATING HIF1ALPHA” (AILERON THERAPEUTICS, INC., priority 2013, published 2019).
Bridge positions count the residues as written; N and C are the ends. Square brackets hold non-standard residues; d marks the D form. Peptide text beside a SMILES is read from it. R8 = C=CCCCCCC[C@@](C)(N)C(=O)O; S5 = C=CCCC[C@](C)(N)C(=O)O; Nle = CCCC[C@H](N)C(=O)O

Experiments:
HRE-bla ME-180 cells [1] = test: Reporter gene assay (HRE-bla ME-180 HIF reporter, GeneBLAzer); assay type: cell-based, human; settings: for EC50: 24 hour normoxia
How it was run: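 A FRET β-lactamase readout of HIF transcription was used. After compound treatment in 0.3% DMSO/media under normoxic conditions, 20 μl of 6× LiveBLAzer-FRET B/G (CCF4-AM) substrate was added. Plates sat 3 hr at room temperature in the dark and were read at 409 Ex/460Em and 409Ex/530Em on a Synergy 2. Inhibition was compared against DMSO vehicle controls, with chetomin as positive control.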

HRE-bla ME-180 cells [2] = test: Cell proliferation assay (viability, MTT, 1% FBS); assay type: cell-based, human
Method: The human cervical cell line HRE-Bla ME-180 was obtained from Invitrogen. 2×10^4 ME-180 cells were plated in 96-well plates (costar) in Opti-MEM plus 1% FBS (Invitrogen). After 4 hr, cells were pretreated with chetomin, peptide or 0.5% DMSO (final concentration in media) vehicle control for 16 hr under normoxia (21% O2); then incubation continued under normoxia or hypoxia (1% O2) using a hypoxia incubator (Thermo Forma model). Viable cell numbers were quantified using CellTiter 96 Non-Radioactive Cell Proliferation kit (Promega, G4100). The results are presented in the column “Viability 1% FBS AVG (MTT V3-24 hr Normoxia) (μM)” of Table 6.

| EC50 (HRE-bla ME-180 cells [1]) | Compound | 18 h Avg % max inhibition at top conc (HIF Rptr-24 hrs normoxia) (μM) (HRE-bla ME-180 cells [1]) | Viability 1% FBS AVG (MTT V3-24 hr Normoxia) (μM) (HRE-bla ME-180 cells [2]) |
| --- | --- | --- | --- |
| ≤ 5 µM | CCCC[C@H](NC(=O)[C@H](Cc1ccccc1)NC(=O)[C@@H](NC(=O)[C@H](C)NC(=O)[C@H](CCC(N)=O)NC(=O)[C@H](CC(=O)O)NC(=O)[C@@H](NC(=O)[C@H](Cc1ccccc1)NC(C)=O)[C@@H](C)CC)C(C)C)C(=O)N[C@@]1(C)CCCC=CCCC[C@@](C)(C(=O)N[C@@H](CCCC)C(=O)N[C@@H](C)C(=O)N[C@@H](CC(C)C)C(=O)N[C@@H](CC(C)C)C(N)=O)NC(=O)[C@H]([C@@H](C)CC)NC(=O)[C@H](C(C)C)NC(=O)[C@H](Cc2c[nH]cn2)NC1=O [SP-254] (Ac-FIDQAVF[Nle][S5]HVI[S5][Nle]ALL-NH2; staple 9-13) | +++ (≤25 but <50: +++) | + (<5: +) |
| ≤ 5 µM | CCCC[C@H](NC(=O)[C@H](Cc1ccccc1)NC(=O)[C@@H](NC(=O)[C@H](C)NC(=O)[C@H](CCC(N)=O)NC(=O)[C@H](CC(=O)O)NC(=O)[C@@H](NC(=O)[C@H](Cc1ccccc1)NC(C)=O)[C@@H](C)CC)C(C)C)C(=O)N[C@@]1(C)CCCC=CCCC[C@@](C)(C(=O)N[C@@H](CCC(N)=O)C(=O)N[C@@H](C)C(=O)N[C@@H](CC(C)C)C(=O)N[C@@H](CC(C)C)C(N)=O)NC(=O)[C@H]([C@@H](C)CC)NC(=O)[C@H](C(C)C)NC(=O)[C@H](CC(C)C)NC1=O [SP-255] (Ac-FIDQAVF[Nle][S5]LVI[S5]QALL-NH2; staple 9-13) | ++++ (≥50: ++++) | + (<5: +) |
| > 30 µM | CCCC[C@H](NC(=O)[C@H](CCC(=O)O)NC(=O)[C@@H](NC(=O)[C@@H](NC(=O)[C@H](CC(C)C)NC(=O)[C@]1(C)CCCC=CCCC[C@](C)(NC(=O)[C@H](CCC(=O)O)NC(=O)[C@H](CC(=O)O)NC(=O)[C@@H](NC(=O)[C@H](CC(N)=O)NC(=O)[C@@H](NC(=O)[C@H](CCC(N)=O)NC(=O)[C@H](CC(=O)O)NC(=O)[C@H](CC(C)C)NC(=O)[C@H](C)NC(=O)[C@H](CCCNC(=N)N)NC(=O)[C@]2(C)CCCC=CCCC[C@](C)(NC(=O)[C@H](CCC(N)=O)NC(=O)[C@H](CC(C)C)NC(=O)[C@H](CC(C)C)NC(C)=O)C(=O)N[C@@H](CCC(=O)O)C(=O)N[C@@H](CCC(=O)O)C(=O)N[C@@H](CC(C)C)C(=O)N2)C(C)C)[C@@H](C)CC)C(=O)N[C@@H](C(C)C)C(=O)N[C@@H](CC(C)C)C(=O)N[C@@H](CCCC)C(=O)N1)C(C)C)[C@@H](C)CC)C(=O)NCC(N)=O [SP-325] (Ac-LLQ[S5]EEL[S5]RALDQVNIDE[S5]VL[Nle][S5]LVIE[Nle]G-NH2; staple 4-8, 19-23) | + (<10: +) | ++++ (≥30: ++++) |
| > 30 µM | CCCC[C@H](NC(=O)[C@H](C)NC(=O)[C@]1(C)CCCC=CCCCCCC[C@@](C)(NC(=O)[C@H](C)NC(=O)[C@H](C)NC(=O)[C@@H](NC(=O)[C@H](CC(N)=O)NC(=O)[C@@H](NC(=O)[C@H](CCC(N)=O)NC(=O)[C@]2(C)CCCC=CCCC[C@](C)(NC(=O)[C@H](CC(C)C)NC(=O)[C@H](C)NC(=O)[C@H](C)NC(=O)CNC(=O)[C@H](CCC(N)=O)NC(=O)[C@H](CC(C)C)NC(=O)[C@H](CC(C)C)NC(C)=O)C(=O)N[C@@H](CCCNC(=N)N)C(=O)N[C@@H](C)C(=O)N[C@@H](CC(C)C)C(=O)N2)C(C)C)[C@@H](C)CC)C(=O)N[C@@H](C(C)C)C(=O)N[C@@H](CC(C)C)C(=O)N[C@@H](CCCC)C(=O)N[C@@H](CO)C(=O)N[C@@H](CC(C)C)C(=O)N[C@@H](C(C)C)C(=O)N1)C(N)=O [SP-364] (Ac-LLQGAAL[S5]RAL[S5]QVNIAA[R8]VL[Nle]SLV[S5]A[Nle]-NH2; staple 8-12, 19-26) | ++ (≤10 but <25: ++) | ++++ (≥30: ++++) |
